What was measured:
[1] = system: HIF-1α / PHDs in murine colon; test: tributyrin oral gavage with or without MCPA in antibiotic SCFA-depleted mice; assay type: in vivo
Description: We next confirmed that butyrate functions as a PHD inhibitor in vivo through antibiotic-mediated depletion of the gut microbiota and SCFAs in mice. […] We administered tributyrin (200 μL), a prodrug of butyrate composed of a glycerol backbone with three butyrate moieties, to SCFA-depleted mice via oral gavage every day for three days with glycerol as a control. Additionally, some mice given tributyrin were subjected with a rectal gavage of 60 mM MCPA to inhibit butyrate metabolism 4 h prior to sacrifice. […] 60 mM MCPA was chosen as a well-tolerated dose that inhibited β-oxidation in mice and rats. […] HIF-la protein was also diminished in epithelial scrapings (FIG. 8B) and whole colon tissue (FIG. 8C) with antibiotic treatment, which was also rescued with tributyrin supplementation with or without MCPA. […] The stabilization of HIF-1α in whole colon tissue also is in agreement with our findings in HMEC-1 and A549 cells that PHD inhibition by butyrate expands to beyond just IECs alone.

[2] = oral gavage, 1 h after dosing, mice; cited from earlier work
[3] = tributyrin with or without MCPA

## CCCC(=O)OCC(COC(=O)CCC)OC(=O)CCC [tributyrin]
[1]; epithelial scrapings and whole colon tissue, tributyrin with or without MCPA
  HIF-1α protein after antibiotic depletion: rescued
[1]; [3]
  colon tissue 2-OG levels after antibiotic depletion: recovered
  colon tissue butyrate levels after antibiotic depletion: rescued
[1]; whole colon tissue and epithelial scrapings, tributyrin 200 μL oral gavage 3 d, with or without MCPA
  HIF-1α target gene Bnip3l mRNA after antibiotic depletion: normalized
[2]
  plasma butyrate concentration: > 1 mM

From patent US20250235418A1, “Butyrate Analogues and Methods of Use for HIF Stabilization and Treatment of Bowel Disease” (THE REGENTS OF THE UNIVERSITY OF COLORADO, A BODY CORPORATE, priority 2022, published 2025)
